PMC3914206

Legend:
[1] = target: T1, panel of 442 kinases (Homo sapiens, UniProt Q14164); type: binding; conditions: Compound Concentration 10 µM
T1 construct: purchased KINOMEscan
T1 sequence (Q14164 1-716): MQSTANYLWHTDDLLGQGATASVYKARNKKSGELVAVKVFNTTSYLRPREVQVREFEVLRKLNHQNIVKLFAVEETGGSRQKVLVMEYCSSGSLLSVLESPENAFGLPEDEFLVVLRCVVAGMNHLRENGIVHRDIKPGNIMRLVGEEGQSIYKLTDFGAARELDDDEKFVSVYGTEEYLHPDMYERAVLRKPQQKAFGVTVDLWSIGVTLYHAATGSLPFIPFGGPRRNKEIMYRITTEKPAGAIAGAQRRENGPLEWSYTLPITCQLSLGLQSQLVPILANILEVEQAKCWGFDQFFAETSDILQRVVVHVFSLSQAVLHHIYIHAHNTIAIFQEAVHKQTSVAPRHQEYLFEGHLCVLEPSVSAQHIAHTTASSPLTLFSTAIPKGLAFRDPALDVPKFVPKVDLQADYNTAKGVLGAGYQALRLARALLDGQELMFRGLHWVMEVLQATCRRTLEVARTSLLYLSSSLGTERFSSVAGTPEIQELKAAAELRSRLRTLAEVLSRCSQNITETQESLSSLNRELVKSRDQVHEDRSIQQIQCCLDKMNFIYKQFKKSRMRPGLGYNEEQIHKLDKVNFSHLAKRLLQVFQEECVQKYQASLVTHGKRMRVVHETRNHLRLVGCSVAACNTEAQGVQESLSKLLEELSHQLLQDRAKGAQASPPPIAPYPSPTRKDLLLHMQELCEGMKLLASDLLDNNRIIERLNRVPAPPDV
Description: (§1) We assessed the selectivity of members of this scaffold using the KINOMEscan methodology across a near comprehensive panel of 442 kinases [[18,27]].

[2] = target: T2, panel of 442 kinases (Homo sapiens, UniProt P53778); type: binding; conditions: Compound Concentration 10 µM
T2 construct: purchased KINOMEscan
T2 sequence (P53778 1-367): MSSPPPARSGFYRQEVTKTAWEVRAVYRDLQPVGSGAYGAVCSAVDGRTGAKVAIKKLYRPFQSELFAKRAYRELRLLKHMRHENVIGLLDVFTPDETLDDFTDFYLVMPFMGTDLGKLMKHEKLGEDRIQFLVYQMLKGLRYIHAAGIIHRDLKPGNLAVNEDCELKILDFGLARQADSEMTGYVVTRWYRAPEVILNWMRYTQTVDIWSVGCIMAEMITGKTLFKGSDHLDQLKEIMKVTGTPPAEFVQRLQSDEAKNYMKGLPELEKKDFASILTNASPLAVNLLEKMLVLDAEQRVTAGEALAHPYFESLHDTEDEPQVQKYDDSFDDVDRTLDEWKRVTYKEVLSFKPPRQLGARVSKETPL
Description: as §1

Row | Structure (SMILES) | KINOMEscan: IKK-epsilon [1] | KINOMEscan: p38-gamma [2]
1 | CCOc1cc(C(=O)N2CCC(N3CCN(C)CC3)CC2)ccc1Nc1ncc2c(n1)N(C1CCCC1)c1ccccc1C(=O)N2C [Compound 26] | 100 | 32
2 | COc1cc(C(=O)N2CCC(N3CCN(C)CC3)CC2)ccc1Nc1ncc2c(n1)N(C1CCCC1)c1ccccc1C(=O)N2C [Compound 25, 11-cyclopentyl-2-((2-methoxy-4-(4-(4-methylpiperazin-1-yl)piperidine-1-carbonyl)phenyl)amino)-5-methyl-5H-benzo[e]pyrimido[5,4-b][1,4]diazepin-6(11H)-one] | 100 | 88
3 | COc1cc(C(=O)N2CCC(N3CCN(C)CC3)CC2)ccc1Nc1ncc2c(n1)N(C)c1ccccc1C(=O)N2C [15 (LRRK2-IN-1)] | 96 | 76
